Here are results for seven molecules from publication PMC12224939, “Trypstatin as a Novel TMPRSS2 Inhibitor with Broad‐Spectrum Efficacy against Corona and Influenza Viruses” (Advanced Science, 2025).

Where a name gives a salt, the structure may show the parent alone. Read-outs that look alike come from different tables or passages of the source. Bridge positions count the residues as written; N and C are the ends. Ends that are not written are not given here. Where only a bound is given, the exact number is not on record here.

The conditions of series [1]: cited from earlier work.
A further series relates to SARS-CoV-2 Omicron BA.1. In words: microbe, parasite or virus in culture. The series is classed as cell-based.
The target in another series is T1, Kallikrein 5 (Homo sapiens, UniProt Q9Y337).
T1 construct: purchased R&D 1108
In words: Recombinant kallikrein 5 activity assay. The format is biochemical. As to conditions: recombinant enzyme. The method, then:
Kallikrein 5 activity was measured by mixing 25 µL of compound with 25 µL of 2 µg mL^−1 of recombinant enzyme (R&D #1108) in assay buffer (100 mM NaH2PO4, pH 8) for 15 min at 37 °C before the addition of 50 µL of BOC‐Val‐Pro‐Arg‐AMC substrate (R&D #ES011). The mixture was incubated for 5 min at 37 °C before fluorescence intensity was measured at an excitation wavelength of 380 nm and emission wavelength of 460 nm in a SynergyTM H1 microplate reader (BioTek) with Gen5 3.04 software.

The next series deals with T2, TMPRSS11D (Homo sapiens, UniProt O60235).
T2 construct: encoding the respective transmembrane serine protease per well; host or cells: HEK293T
As to the kind of experiment: Cellular TMPRSS11D activity assay in transfected HEK293T cells. The format is cell-based. The method, then:
(§1) Twenty thousand HEK293T cells were seeded in a 96‐well flat bottom plate. The next day, cells were transfected with 100 ng of an expression plasmid (Backbone: Twist Bioscience, EF1alpha mammalian expression vector) encoding the respective transmembrane serine protease per well using LT1 transfection reagent (TMPRSS2 human NCBI RefSeq: NP_005647.3; TMPRSS2 Syrian gold hamster NCBI RefSeq: XP_012971683.1; TMPRSS11D NCBI RefSeq: NP_004253.1; TMPRSS13 NCBI RefSeq: NP_001070731.1). In short, plasmid DNA was mixed in a 1:3 ratio with LT1 in a serum‐free medium and incubated for 20 min before the mixture was applied dropwise onto the cells. Sixteen hours post‐transfection, the medium was replaced by a serum‐free medium, and cells were treated with serial dilution of compounds in PBS. After 15 min of incubation at 37 °C, 100 µM of respective protease‐specific substrate (TMPRSS2: Boc‐QAR‐AMC, Bachem # 4017019; TMPRSS11D: Boc‐FSR‐AMC, Bachem # 4012340; TMPRSS13: Pyr‐RTKR‐AMC, Bachem #4018149) was added and incubated for 2 h at 37 °C. Fluorescence intensity was recorded at an excitation wavelength of 380 nm and emission wavelength of 460 nm in a Synergy H1 microplate reader (BioTek) with Gen 5 3.04 software. Values were background corrected for non‐transfected HEK293T‐cells.

The target of a further series is T3, TMPRSS13 (Homo sapiens, UniProt Q9BYE2).
T3 construct: encoding the respective transmembrane serine protease per well; host or cells: HEK293T
As to the kind of experiment: Cellular TMPRSS13 activity assay in transfected HEK293T cells. The series is classed as cell-based. The method, then:
as §1

Another series deals with hCoV-NL63. As to the kind of experiment: HCoV-NL63 inhibition assay in Caco-2 cells. The format is cell-based. The method, then:
Caco‐2 cells (25 000) were seeded in a 96‐well flat‐bottom plate before the following day, cells were treated for 30 min with serial dilutions of compounds in PBS and the cells were infected with a MOI of 0.018 and incubated at 33 °C. At 72 hpi, cells were detached and fixed in a final concentration of 4% PFA for 30 min. Subsequently, cells were washed with PBS and stained for flow cytometry analysis with anti‐NL63‐nucleocapsid antibody (SinoBiological #40641‐T62) diluted 1:5000 in Buffer B (Fix and Perm, MuBio Nordic) for 40 min at 4 °C. Cells were washed twice with FACS buffer (1% FCS in PBS) and incubated with Alexa Flour 647 labeled anti‐rabbit antibody (Cell Signaling #4414) diluted 1:5000 in FACS buffer for 30 min at 4 °C before the cells were washed again twice with FACS buffer. Analysis was performed using a CytoflexLX flow cytometer (Beckmann Coulter) with CytExpert 2.3 software.

Series [2] concerns Influenza A/Victoria/361/11 (Vict11; A/H3N2). In words: Influenza virus inhibition assay in Calu-3 cells, IAV H3N2. The format is cell-based, influenza A virus.
Another series concerns the target T4, TMPRSS14 (Matriptase) (Homo sapiens, UniProt Q9Y5Y6).
T4 construct: purchased 3946
In words: Recombinant TMPRSS14 activity assay. The format is biochemical. The settings on record: recombinant enzyme. The method, then: In the next step, 50 µL of 20 µM BOC‐Gln‐Ala‐Arg‐AMC protease substrate (Bachem #4017019) in the case of TMPRSS2 and TMPRSS14 or 50 µL of 150 µM BOC‐Gln‐Arg‐Arg‐AMC (PeptaNova) in the case of TMPRSS1 was added and incubated for 2 h for TMPRSS2, or 5 mins in the case of TMPRSS1/14 at 37 °C. Fluorescence intensity was measured after 2 h at an excitation wavelength of 380 nm and emission wavelength of 460 nm in a SynergyTM H1 microplate reader (BioTek) with Gen5 3.04 software. […] Assays were performed in a total volume of 100 µL in quadruplicate wells of a 96 Nunc well plate (Thermo Scientific #10174221) with a final TMPRSS2 concentration of 20 nM. Initial velocities were measured in 50 s intervals for 15 min with excitation of 360 nm and emission of 460 nm in a SynergyTM H1 microplate reader. K m and V max were calculated from Michaelis–Menten plots using GraphPadPrism. The inhibitory constant K i was calculated from the IC50 values according to the Cheng–Prusoff equation (K i = IC50/(1 + [S]/K m)) for competitive reversible inhibitors.^[ [91] ^]

In series [3] the test system is Influenza B/Ned/537/05 (Ned05; B/Yamagata lineage). As to the kind of experiment: Influenza virus inhibition assay in Calu-3 cells, IBV. The format is cell-based, influenza B virus.
The test system of series [4] is Influenza A/Virginia/ATCC3/2009 (Virg09; A/H1N1). As to the kind of experiment: Influenza virus inhibition assay in Calu-3 cells, IAV H1N1. The series is classed as cell-based, influenza A virus.
The test system of series [5] is lentiviral pseudoparticles harboring VSV-G glycoprotein. The format is cell-based.
[6] abbreviates: Human coronavirus NL63, Caco-2, Table S1, read-out: anti-viral IC50 (±SEM), hCoV-NL63.
[7] abbreviates: Table S1, read-out: anti-viral IC50 (±SEM), IBV.
Setting [8] is: Table S1, read-out: anti-viral IC50 (±SEM), IAV H1N1.

T4 sequence (Q9Y5Y6 whole entry): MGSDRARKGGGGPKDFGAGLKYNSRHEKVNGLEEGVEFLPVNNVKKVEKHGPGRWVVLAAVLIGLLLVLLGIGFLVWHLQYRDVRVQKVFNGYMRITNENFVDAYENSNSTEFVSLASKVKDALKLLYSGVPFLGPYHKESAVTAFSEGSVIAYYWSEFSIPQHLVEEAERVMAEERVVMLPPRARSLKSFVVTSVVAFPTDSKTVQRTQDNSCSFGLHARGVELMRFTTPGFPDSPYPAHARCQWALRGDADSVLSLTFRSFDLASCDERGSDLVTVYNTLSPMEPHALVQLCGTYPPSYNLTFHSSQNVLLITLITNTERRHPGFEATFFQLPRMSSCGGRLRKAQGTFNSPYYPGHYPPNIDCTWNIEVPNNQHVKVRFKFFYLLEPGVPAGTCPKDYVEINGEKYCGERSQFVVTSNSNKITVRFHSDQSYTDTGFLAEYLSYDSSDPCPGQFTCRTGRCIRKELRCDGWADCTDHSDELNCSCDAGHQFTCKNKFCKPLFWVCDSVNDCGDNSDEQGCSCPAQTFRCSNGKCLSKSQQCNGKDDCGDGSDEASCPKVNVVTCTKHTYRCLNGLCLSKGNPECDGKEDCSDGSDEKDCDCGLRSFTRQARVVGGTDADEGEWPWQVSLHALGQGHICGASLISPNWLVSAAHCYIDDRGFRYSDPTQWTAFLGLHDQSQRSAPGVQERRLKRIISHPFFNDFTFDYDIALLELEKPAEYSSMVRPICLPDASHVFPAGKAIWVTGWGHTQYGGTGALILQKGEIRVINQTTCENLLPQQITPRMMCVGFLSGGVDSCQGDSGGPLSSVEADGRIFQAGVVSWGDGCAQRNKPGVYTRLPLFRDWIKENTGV
T2 sequence (O60235 whole entry): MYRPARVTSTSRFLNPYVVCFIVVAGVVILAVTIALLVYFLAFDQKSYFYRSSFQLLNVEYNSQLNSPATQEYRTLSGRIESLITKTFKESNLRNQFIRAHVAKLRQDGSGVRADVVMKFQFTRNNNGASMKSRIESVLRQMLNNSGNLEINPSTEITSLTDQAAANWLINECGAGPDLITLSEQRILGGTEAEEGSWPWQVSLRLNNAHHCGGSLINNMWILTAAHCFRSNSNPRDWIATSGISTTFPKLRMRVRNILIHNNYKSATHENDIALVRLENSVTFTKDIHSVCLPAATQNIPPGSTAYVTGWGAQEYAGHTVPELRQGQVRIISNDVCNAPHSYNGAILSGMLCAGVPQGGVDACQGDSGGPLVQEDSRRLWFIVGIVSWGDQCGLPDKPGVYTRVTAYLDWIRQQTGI
T1 sequence (Q9Y337 23-293): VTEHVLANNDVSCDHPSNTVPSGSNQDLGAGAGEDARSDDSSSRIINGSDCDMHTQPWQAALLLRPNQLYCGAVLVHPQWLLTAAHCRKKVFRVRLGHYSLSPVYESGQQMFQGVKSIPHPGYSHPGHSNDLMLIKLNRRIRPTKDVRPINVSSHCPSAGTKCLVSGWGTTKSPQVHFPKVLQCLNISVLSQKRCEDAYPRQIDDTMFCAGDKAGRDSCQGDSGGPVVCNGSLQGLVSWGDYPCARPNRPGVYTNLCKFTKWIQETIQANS
T3 sequence (Q9BYE2 other isoform, or with tags, fused parts or gaps): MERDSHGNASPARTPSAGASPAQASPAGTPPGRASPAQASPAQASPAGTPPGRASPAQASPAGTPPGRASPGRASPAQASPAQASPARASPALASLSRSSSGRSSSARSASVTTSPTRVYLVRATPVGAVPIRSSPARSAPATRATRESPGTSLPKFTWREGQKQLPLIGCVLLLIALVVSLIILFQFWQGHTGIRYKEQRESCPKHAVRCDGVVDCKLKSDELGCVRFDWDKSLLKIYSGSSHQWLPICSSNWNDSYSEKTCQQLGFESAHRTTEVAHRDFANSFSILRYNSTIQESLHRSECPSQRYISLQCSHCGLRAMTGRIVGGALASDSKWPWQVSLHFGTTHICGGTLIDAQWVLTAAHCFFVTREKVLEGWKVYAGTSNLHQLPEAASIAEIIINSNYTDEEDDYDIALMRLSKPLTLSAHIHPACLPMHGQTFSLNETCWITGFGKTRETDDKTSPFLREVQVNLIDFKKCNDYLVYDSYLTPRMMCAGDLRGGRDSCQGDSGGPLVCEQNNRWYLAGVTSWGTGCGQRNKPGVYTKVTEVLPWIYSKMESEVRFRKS

As for `CN(C)C(=O)COC(=O)Cc1ccc(OC(=O)c2ccc(NC(=N)N)cc2)cc1` [Camostat mesylate], in series [1], the plasma half-life is less than 2 h. Besides, the half-maximal inhibitory concentration (IC50) stood at 68 nM in the series on SARS-CoV-2 Omicron BA.1 (Severe acute respiratory syndrome coronavirus 2, Caco-2, 24 h, read-out: IC50, SARS-CoV-2 Omicron BA.1); 68.1 ± 5 nM with SARS-CoV-2 Omicron BA.1 (Severe acute respiratory syndrome coronavirus 2, Caco-2, read-out: anti-viral IC50 (±SEM), SARS-CoV-2 BA.1); 536 nM on Kallikrein 5; 194 nM on TMPRSS11D; 93 nM on TMPRSS13; 110 nM with hCoV-NL63 (Human coronavirus NL63, Caco-2, 72 h, read-out: IC50, hCoV-NL63 replication). The concentration for half-maximal inhibition (IC50) with hCoV-NL63 (setting [6]) was found to be 110 ± 24 nM; in [2] (Influenza A virus, H3N2, Calu-3, 72 h, read-out: IC50, IAV H3N2 (Vict11)), 50 nM; in [2] (Influenza A virus, H3N2, Calu-3, Table S1, read-out: anti-viral IC50 (±SEM), IAV H3N2), 50.2 ± 16 nM; on TMPRSS14 (Matriptase), 23 nM; in [3] (Influenza B virus, Calu-3, 72 h, read-out: IC50, IBV (Ned05)), 125 nM; in series [3] (Influenza B virus, Calu-3, Table S1, read-out: anti-viral IC50 (±SEM), IBV), 125 ± 33 nM. In addition, the concentration for half-maximal inhibition (IC50) came to 220 nM in series [4] (Influenza A virus, Calu-3, 72 h, read-out: IC50, IAV H1N1 (Virg09)) and 220 ± 49 nM in [4] (Influenza A virus, Calu-3, Table S1, read-out: anti-viral IC50 (±SEM), IAV H1N1).
For the molecule `N=C(N)c1ccc2cc(OC(=O)c3ccc(N=C(N)N)cc3)ccc2c1` [Nafamostat mesylate], the half-life in series [1] was 8 min.
With “CNLPIVRGPCRAFIQLWAFDAVKGKCVLFPYGGCQGNGNKFYSEKECREYC (disulfide 1-51, 10-34, 26-47) [Bikunin KD 2]”, the “effect on VSV-G-mediated pseudoparticle entry” value in series [5] is “without affecting VSV‐G‐driven entry”.
For `CC(C)(C)[C@H](NC(=O)C(F)(F)F)C(=O)N1C[C@H]2[C@@H]([C@H]1C(=O)N[C@H](C#N)C[C@@H]1CCNC1=O)C2(C)C` [Nirmatrelvir], the IC50 with hCoV-NL63 (setting [6]) came to 1260 ± 64 nM.
As for Aprotinin, the IC50 in [2] (Table S1, read-out: anti-viral IC50 (±SEM), IAV H3N2) came to 1460 ± 693 nM; in series [3] (setting [7]) it was 2790 ± 871 nM; in [4] (setting [8]), 2250 ± 886 nM.
With `O=C1c2c(O)c(=O)ccn2N([C@@H]2c3ccccc3SCc3c2ccc(F)c3F)[C@@H]2COCCN12` [Baloxavir acid], the half-maximal inhibitory concentration (IC50) in series [3] (setting [7]) turned out to be 10.3 ± 2 nM; in [4] (setting [8]), 1.6 ± 1 nM.

B1: Bikunin (protein, UniProt P02760 206-352, looked up)
Inter-alpha-trypsin inhibitor …: AVLPQEEEGSGGGQLVTEVTKKEDSCQLGYSAGPCMGMTSRYFYNGTSMACETFQYGGCMGNGNNFVTEKECLQTCRTVAACNLPIVRGPCRAFIQLWAFDAVKGKCVLFPYGGCQGNGNKFYSEKECREYCGVPGDGDEELLRFSN
modifications: Inter-alpha-trypsin inhibitor light chain
In the case of B1, the “effect on VSV-G-mediated pseudoparticle entry” value in [5] is “non‐specific effects against VSV‐G‐mediated entry”.
